From patent publication US6719969B1, “Treatment of liver disease and injury with CXC chemokines” (The Regents of The University of Michigan, priority 1999, dated 2004)
Several values for one entry are separate records, joined by “and”; a condition that tells them apart may be missing. Identical values can stand only once.

T1: murine CXCR2 (Mus musculus, UniProt P35343)
T1 sequence (P35343 1-359): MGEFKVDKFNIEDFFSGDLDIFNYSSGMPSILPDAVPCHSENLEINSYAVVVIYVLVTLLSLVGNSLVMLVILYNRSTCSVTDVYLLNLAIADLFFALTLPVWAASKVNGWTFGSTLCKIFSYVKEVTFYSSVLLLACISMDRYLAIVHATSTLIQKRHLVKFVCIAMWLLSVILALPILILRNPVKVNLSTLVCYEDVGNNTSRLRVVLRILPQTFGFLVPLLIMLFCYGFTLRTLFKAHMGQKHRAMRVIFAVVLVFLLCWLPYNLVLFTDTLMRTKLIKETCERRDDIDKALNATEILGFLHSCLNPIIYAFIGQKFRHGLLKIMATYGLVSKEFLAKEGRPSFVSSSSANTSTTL


Key:
[1] = test system: normal murine liver cells (ATCC CRL-1638; NmuLi); experiment: Cultured liver cell proliferation after acetaminophen, [3H]thymidine incorporation; format: cell-based, mouse; conditions: for Proliferation of liver cells exposed to PBS: NAC 1 mM, cytokines 1 ng/ml, no acetaminophen; for Proliferation of liver cells exposed to acetaminophen for 24 h: 2.5 mg/ml acetaminophen
Method: The effects of chemokines, NAC and HGF on hepatocyte proliferation after a 24 h acetaminophen challenge were examined using normal murine liver cells obtained from American Type Culture Collection (ATCC CRL-1638; NmuLi). Hepatocytes were plated at a density of 1.0×10^5 cells/well in 6-well tissue culture plates, and were deprived of fetal bovine serum supplementation for 36 h prior to an study. Fasted hepatocytes were subsequently exposed to 2.5 mg/ml of acetaminophen and were left untreated or treated with one of NAC, MIP-2, ENA-78, IL-8, IP-10 or HGF. NAC at 1 mM or individual cytokines at 1 ng/ml were added either immediately or 10 h after the addition of acetaminophen.
In additional in vitro studies, normal serum or anti-CXCR2 antibody was also included in cultures of treated or untreated hepatocytes exposed to PBS or acetaminophen. Ten μCi of [^3H]thymidine was added to each well for the final 4 h of culture, and 24 h after the addition of acetaminophen suspensions of hepatocytes were prepared via cell lysis with 0.5% (v/v) Triton-X100. [^3H]thymidine incorporation was assessed by liquid scintillation counting on a Beckman counter (Beckman Instruments, Fullerton, Calif.).

[2] = test system: CD1 mice challenged with 400 mg/kg acetaminophen; experiment: Acetaminophen-induced hepatic injury, mice fasted 12 h, treatment immediately or 10 h after challenge; format: in vivo, mouse; conditions: for Liver injury (histology): treatment 10 h after acetaminophen, liver at 48 h; for Significant reduction of serum AST levels / Reduction of serum AST levels: AST at 48 h; for Reduction of serum AST levels: NAC 100 ug, proteins 2 ug i.v.
Method: Female CD1 mice (6-8 wk of age) were purchased from Charles River Laboratories (Portage, Mich.) and maintained under specific pathogen-free conditions with free access to water and food prior to each study. Fresh suspensions of acetaminophen (Sigma Chemical Company, St. Louis, Mo.) were made daily by dissolving the compound in phosphate buffered saline (PBS) warmed to 40° C. In all studies, mice were allowed free access to water alone prior to an i.p. injection of 400 mg/kg acetaminophen (Manatou et al., 1996; incorporated herein by reference).
Protocol 2: In the second set of studies, mice were fasted for 12 h and received one of NAC, murine MIP-2, the human proteins ENA-78, IL-8, HGF or IP-10 either immediately or 10 h after acetaminophen challenge. […] Mice were injected i.v. with 100 μg of NAC or 2 μg of recombinant protein (ENA-78, IL-8, HGF or IP-10) dissolved in 0.5 ml of normal saline. All mice were subsequently sacrificed 48 h after acetaminophen challenge and serum and liver samples were removed.
Acute hepatocellular injury results in elevated levels of aspartate aminotransferase (AST). Serum levels of AST were determined 48 h after mice were challenged with acetaminophen by Clinical Pathology at the University of Michigan Medical School (Ann Arbor, Mich.) using standardized techniques.
For histological assessment of hepatic injury, liver tissues were fixed in 4% paraformaldehyde for 24 h prior to routine histological processing. A pathologist assessed hematoxylin and eosin stained slides from acetaminophen-challenged mice in a blinded manner. Separate scoring systems were devised to indicate the area of liver necrosis and hemorrhage, and the extent of hepatic inflammation. Detailed histological grading of hepatic injury including area of liver necrosis and hemorrhage was determined at 48 h after acetaminophen challenge. Hepatic inflammation was graded as absent, slight, moderate, or prominent.
The histological appearances of the livers from normal mice and mice that were challenged with acetaminophen and received saline or 2 μg of murine MIP-2, human ENA-78, human IL-8, human IP-10, human HGF or 100 μg of NAC were also analyzed. Mice were fasted for 12 h prior to i.p. injection with 400 mg/kg of acetaminophen, and then allowed free access to food. In these studies, saline, chemokines or NAC were given by i.v. injection 10 h after acetaminophen challenge, and liver was removed from each mouse for histological examination at the 48 h time point after acetaminophen.

[3] = test system: CD1 mice challenged with 400 mg/kg acetaminophen; experiment: Acetaminophen challenge in mice fasted 24 h, MIP-2 or NAC treatment; format: in vivo, mouse
Method: Protocol 3: In the next set of studies, mice were fasted for 24 h and received MIP-2 (2 μg) or NAC (100 μg) via an i.v. injection either immediately or 10 h after acetaminophen challenge, and liver and serum samples were removed from surviving mice 48 h after acetaminophen challenge. Liver and serum samples from the experimental groups and from mice challenged with an i.p. injection of PBS and treated i.v. with normal saline were processed as described below.
The histological appearances of the livers from mice that were challenged with acetaminophen and received 100 μg of NAC or 2 μg of murine MIP-2 by i.v. injection, either immediately after or 10 h later, were also analyzed.

[4] = test system: CD-1 mice challenged with 400 mg/kg acetaminophen
[5] = test system: neutrophils; conditions: ELR motif introduced into PF-4; cited from earlier work
[6] = target: T1, murine CXCR2; conditions: Lee et al., 1995; cited from earlier work
[7] = treatment delayed 10 h after acetaminophen
[8] = treatment immediately after acetaminophen

| Molecule | Proliferation of liver cells exposed to PBS [1] | Liver injury (histology) [2] | Significant reduction of serum AST levels [2, 7] | Reduction of serum AST levels [2, 8] | Proliferation of liver cells exposed to acetaminophen for 24 h ([1]; treatment added immediately) | other results |
| --- | --- | --- | --- | --- | --- | --- |
| IL-8: ELR-containing CXC chemokine, interleukin-8; human recombinant protein | did not change the proliferation | marked attenuation of liver injury | significantly reduced serum AST levels | approximately 50% |  |  |
| ENA-78: ELR-containing CXC chemokine, epithelial neutrophil activating protein-78; human recombinant protein | did not change the proliferation | marked attenuation of liver injury | significantly reduced serum AST levels | approximately 50% | prevented the drop in liver cell proliferation |  |
| CC(=O)N[C@@H](CS)C(=O)O [NAC, N-acetyl-cysteine] | did not alter the proliferation | Neither HGF nor 100 μg of NAC were effective | no longer able to significantly reduced serum AST levels | approximately 90% | maintained the proliferation | Proliferation of liver cells exposed to acetaminophen for 24 h ([1]; treatment added 10 h later, vs PBS cultures): significantly reduced liver cell proliferation; Liver histology ([3]; 24 h fast, treatment delayed 10 h): did not attenuate hepatic injury; Liver histology ([3]; 24 h fast, treatment immediately after acetaminophen): effective; Serum AST, NAC vs MIP-2 ([3]; 24 h fast, treatment immediately after acetaminophen, 48 h): significantly lower levels of serum AST; Percent survival, treatment Immediately After Acetaminophen ([3]; CD1 mice fasted 24 h, 400 mg/kg acetaminophen, monitored 48 h, 400 mg/kg): 90%; Percent survival, treatment 10 h post Acetaminophen ([3]; CD1 mice fasted 24 h, 400 mg/kg acetaminophen, 400 mg/kg): 25% and 20% |
| IP-10: non-ELR CXC chemokine, γ-interferon-inducible protein-10 |  |  |  |  | not further reduced | Lowering of proliferation rate of liver cells exposed to PBS ([1]; 1 ng/ml, vs control cultures with PBS): 40%; Hepatic injury (histology) ([4]; 1 ug i.v. 10 h after acetaminophen, 2 days after challenge): dramatically decreased hepatic injury; Decrease in liver injury (serum ALT) ([4]; 8 hours after administration, vs saline): approximately three-fold; Serum MIP-2 levels ([4]; 8 h post treatment): almost three times the levels seen in control animals; CXCR2 protein in liver (Western blot) ([4]; 26 h and subsequent time points): high level of CXCR2 protein; CXCR2 protein on hepatocytes (immunohistochemistry) ([4]; mouse, in vivo): quite strong expression of CXCR2 protein; Significant reduction of serum AST levels [2, 8]: not |
| PF-4: CXC chemokine lacking the ELR sequence (protein, UniProt P02776 32-101, looked up) Platelet factor 4: EAEEDGDLQCLCVKTTSQVRPRHITSLEVIKAGPHCPTAQLIATLKNGRKICLDLQAPLYKKIIKKLLES |  |  |  |  |  | Increase in neutrophil chemotactic properties [5]: 1,000 fold |
| KC: murine ELR-CXC chemokine with neutrophil chemotactic properties (protein, UniProt P12850 25-96, looked up) Growth-regulated alpha protein: APIANELRCQCLQTMAGIHLKNIQSLKVLPSGPHCTQTEVIATLKNGREACLDPEAPLVQKIVQKMLKGVPK |  |  |  |  |  | Affinity for CXCR2, fold less than MIP-2 [6]: approximately 10 fold |
